What was measured:
[1] = test system: CD8+ T cells; test: In vitro immunogenicity: in vitro T-cell priming assay with aAPCs loaded with peptide/MHC complexes and anti-CD28 antibody, pMHC multimer readout; format: cell-based, human; details: Table 10b, pMHC multimer readout after priming of CD8+ T cells
Text: In order to obtain information regarding the immunogenicity of the TUMAPs of the present invention, the inventors performed investigations using an in vitro T-cell priming assay based on repeated stimulations of CD8+ T cells with artificial antigen presenting cells (aAPCs) loaded with peptide/MHC complexes and anti-CD28 antibody.
In order to perform in vitro stimulations by artificial antigen presenting cells loaded with peptide-MHC complex (pMHC) and anti-CD28 antibody, the inventors first isolated CD8+ T cells from fresh HLA-B*07 leukapheresis products via positive selection using CD8 microbeads (Miltenyi Biotec, Bergisch-Gladbach, Germany) of healthy donors obtained from the University clinics Mannheim, Germany, after informed consent.
PBMCs and isolated CD8+ lymphocytes were incubated in T-cell medium (TCM) until use consisting of RPMI-Glutamax (Invitrogen, Karlsruhe, Germany) supplemented with 10% heat inactivated human AB serum (PAN-Biotech, Aidenbach, Germany), 100 U/ml Penicillin/100 μg/ml Streptomycin (Cambrex, Cologne, Germany), 1 mM sodium pyruvate (CC Pro, Oberdorla, Germany), 20 μg/ml Gentamycin (Cambrex). 2.5 ng/ml IL-7 (PromoCell, Heidelberg, Germany) and 10 U/ml IL-2 (Novartis Pharma, Nürnberg, Germany) were also added to the TCM at this step.
Generation of pMHC/anti-CD28 coated beads, T-cell stimulations and readout was performed in a highly defined in vitro system using four different pMHC molecules per stimulation condition and 8 different pMHC molecules per readout condition.
The purified co-stimulatory mouse IgG2a anti human CD28 Ab 9.3 (Jung et al., 1987) was chemically biotinylated using Sulfo-N-hydroxysuccinimidobiotin as recommended by the manufacturer (Perbio, Bonn, Germany). Beads used were 5.6 μm diameter streptavidin coated polystyrene particles (Bangs Laboratories, Illinois, USA).
800.000 beads/200 μl were coated in 96-well plates in the presence of 4×12.5 ng different biotin-pMHC, washed and 600 ng biotin anti-CD28 were added subsequently in a volume of 200 μl. Stimulations were initiated in 96-well plates by co-incubating 1×10^6 CD8+ T cells with 2×10^5 washed coated beads in 200 μl TCM supplemented with 5 ng/ml IL-12 (PromoCell) for 3 days at 37° C. Half of the medium was then exchanged by fresh TCM supplemented with 80 U/ml IL-2 and incubating was continued for four days at 37° C. This stimulation cycle was performed for a total of three times. For the pMHC multimer readout using 8 different pMHC molecules per condition, a two-dimensional combinatorial coding approach was used as previously described (Andersen et al., 2012) with minor modifications encompassing coupling to five different fluorochromes. Finally, multimeric analyses were performed by staining the cells with Live/dead near IR dye (Invitrogen, Karlsruhe, Germany), CD8-FITC antibody clone SK1 (BD, Heidelberg, Germany) and fluorescent pMHC multimers. For analysis, a BD LSRII SORP cytometer equipped with appropriate lasers and filters was used. Peptide specific cells were calculated as percentage of total CD8+ cells. Evaluation of multimeric analysis was done using the FlowJo software (Tree Star, Oregon, USA). In vitro priming of specific multimer+CD8+ lymphocytes was detected by comparing to negative control stimulations.

[2] = target: HLA-B*07 (Homo sapiens, UniProt P01889); test: MHC binding assay (UV-ligand exchange, ELISA of stabilized MHC complexes); details: peptide exchange yield on HLA-B*07, UV-ligand exchange
Method in brief: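 Binding is reported as exchange yield: an ELISA with HRP-conjugated anti-β2m (A450, TMB) quantified how much test peptide stabilized MHC after UV cleavage of a photolabile placeholder peptide. Exchange monomers were diluted 100-fold and captured on streptavidin-coated plates for 1 h at 37 °C.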

| Substance | Wells positive [%] [1] | Peptide exchange [2] |
| --- | --- | --- |
| 61 (LPRIPFSTF; listed as Homo sapiens) [compound 61] | ++ (20%-49% = ++) | ++++ (>75% = ++++) |
| 51 (SPVFYVQTL; listed as Homo sapiens) [compound 51] | + (<20% = +) | ++++ (>75% = ++++) |
| 64 (VPRPIFSQLYL; listed as Homo sapiens) [compound 64] | +++ (50%-69% = +++) | ++++ (>75% = ++++) |
| 9 (RPDSRLLEL; listed as Homo sapiens) [compound 9] | +++ (50%-69% = +++) | ++++ (>75% = ++++) |
| 38 (RPSFPNLTSF; listed as Homo sapiens) [compound 38] | + (<20% = +) | ++++ (>75% = ++++) |
| 17 (SPAAPLSPASSL; listed as Homo sapiens) [compound 17] | + (<20% = +) | ++++ (>75% = ++++) |
| 364 (KPRTPFTTAQL; listed as Homo sapiens) [compound 364] | + (<20% = +) | ++++ (>75% = ++++) |
| 49 (APEKARAFL; listed as Homo sapiens) [compound 49] | + (<20% = +) | +++ (>50 = +++) |
| 6 (LPLNSSTSL; listed as Homo sapiens) [compound 6] | + (<20% = +) | ++++ (>75% = ++++) |
| 24 (VPRPTSTVGLFL; listed as Homo sapiens) [compound 24] | + (<20% = +) | ++++ (>75% = ++++) |
| 4 (GPKKFIVKL; listed as Homo sapiens) [compound 4] | + (<20% = +) | +++ (>50 = +++) |
| 23 (VPRPTSTVGL; listed as Homo sapiens) [compound 23] | ++ (20%-49% = ++) | +++ (>50 = +++) |
| 26 (SPSFSSTLLSL; listed as Homo sapiens) [compound 26] | + (<20% = +) | ++++ (>75% = ++++) |
| 33 (LPRGLSPARQL; listed as Homo sapiens) [compound 33] | ++ (20%-49% = ++) | +++ (>50 = +++) |
| 5 (LPSLSHCSQL; listed as Homo sapiens) [compound 5] | ++ (20%-49% = ++) | ++++ (>75% = ++++) |
| 12 (LPNTGRIGQLL; listed as Homo sapiens) [compound 12] | ++ (20%-49% = ++) | ++++ (>75% = ++++) |
| 21 (APSRLLEL; listed as Homo sapiens) [compound 21] | + (<20% = +) | ++++ (>75% = ++++) |
| 361 (SPYGSDRLVQL; listed as Homo sapiens) [compound 361] | + (<20% = +) | ++++ (>75% = ++++) |
| 68 (FPNEVSVVL; listed as Homo sapiens) [compound 68] | ++ (20%-49% = ++) | ++++ (>75% = ++++) |

From US20220289816A1, “IMMUNOTHERAPY WITH B*07 RESTRICTED PEPTIDES AND COMBINATION OF PEPTIDES AGAINST CANCERS AND RELATED METHODS” (Immatics Biotechnologies GmbH, priority 2018, published 2022)
